Data from article PMC11308014 (ACS Omega, 2024).
pIC50: −log10 of the molar value.

Molecular target: T1, recombinant human dihydrofolate reductase (hDHFR) (Homo sapiens, UniProt P00374)
T1 construct: gene DHFR; commercial recombinant enzyme (R&D, Bio-Techne)
T1 sequence (P00374 1-187): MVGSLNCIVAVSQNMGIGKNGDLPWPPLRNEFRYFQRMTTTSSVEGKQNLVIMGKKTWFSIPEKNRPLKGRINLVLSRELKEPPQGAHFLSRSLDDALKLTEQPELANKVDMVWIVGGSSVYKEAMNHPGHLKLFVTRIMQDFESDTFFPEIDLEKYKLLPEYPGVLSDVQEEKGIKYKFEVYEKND
Experiment: NADPH oxidation, absorbance at […] nm
Assay type: biochemical

Compound	pIC50
CN(Cc1cnc2nc(N)nc(N)c2n1)c1ccc(C(=O)NCCCC(=O)O)cc1 [compound 4, 4]	8.00
CN(Cc1cnc2nc(N)nc(N)c2n1)c1ccc(C(=O)NCCCCCCCC(=O)O)cc1 [compound 6, 6]	6.00
CN(Cc1cnc2nc(N)nc(N)c2n1)c1ccc(C(=O)NCCCCCC(=O)O)cc1 [compound 5, 5]	5.92
CN(Cc1cnc2nc(N)nc(N)c2n1)c1ccc(C(=O)NCCS(=O)(=O)O)cc1 [compound 7, 7]	5.52
